From patent US20250163064A1, “QUINAZOLINE COMPOUNDS AND USES THEREOF AS INHIBITORS OF MUTANT KRAS PROTEINS” (AMGEN INC., priority 2022, published 2025)

What was measured:
[1] = test system: Phosphorylation of ERK1/2 in AsPC-1 cells; assay: Phospho-ERK1/2 MSD Assay; assay type: cell-based; conditions: Homo sapiens, ASPC1, 2 h, read-out: 2 h p-ERK (AsPC-1 cells), IC50 (μM), AsPC-1 cells, 2 h compound treatment
Protocol: AsPC-1 (ATCC® CRL-1682TM) cells were cultured in RPMI 1640 Medium (ThermoFisher Scientific 11875093) containing 10% fetal bovine serum (ThermoFisher Scientific 16000044) and 1× penicillin-streptomycin-glutamine (ThermoFisher Scientific 10378016). Sixteen hours prior to compound treatment, AsPC-1 cells were seeded in 96-well cell culture plates at a density of 25,000 cells/well and incubated at 37° C., 5% CO2. A compound dose-response titration was diluted in growth media, added to appropriate wells of a cell culture plate, and then incubated at 37° C., 5% CO2 for 2 hours. Following compound treatment, cells were washed with ice-cold Dulbecco's phosphate-buffered saline, no Ca^2+ or Mg^2+ (ThermoFisher Scientific 14190144), and then lysed in RIPA buffer (50 mM Tris-HCl pH 7.5, 1% Igepal, 0.5% sodium deoxycholate, 150 mM NaCl, and 0.5% sodium dodecyl sulfate) containing protease inhibitors (Roche 4693132001) and phosphatase inhibitors (Roche 4906837001). Phosphorylation of ERK1/2 in compound-treated lysates was assayed using Phospho-ERK1/2 Whole Cell Lysate kits (Meso Scale Discovery K151DWD) according to the manufacturer's protocol. Assay plates were read on a Meso Scale Discovery Sector Imager 6000, and data were analyzed using a 4-parameter logistic model to calculate IC50 values.

[2] = target: His-tagged KRAS G12D protein (Homo sapiens (Human), UniProt P01116, G12D); assay: KRAS G12D TR-FRET Assay; assay type: binding; conditions: biotinylated KRPep-2d, 10 μM GDP
Sequence of His-tagged KRAS G12D protein (P01116-2 other isoform, or with tags, fused parts or gaps G12D): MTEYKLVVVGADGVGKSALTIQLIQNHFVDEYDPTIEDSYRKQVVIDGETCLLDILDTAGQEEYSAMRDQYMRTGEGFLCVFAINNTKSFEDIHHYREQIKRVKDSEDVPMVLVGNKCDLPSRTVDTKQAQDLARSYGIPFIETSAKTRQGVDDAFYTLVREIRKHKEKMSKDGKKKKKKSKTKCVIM
Protocol: Compounds of interest were prepared in a dose-response titration in DMSO, and 80 nL were added via Labcyte Echo to each well of a 384-well plate (Perkin Elmer 6008280). The His-tagged KRAS G12D protein (Amgen) was diluted to 20 nM in Assay Buffer (20 mM HEPES, pH 7.4, 10 mM MgCl2, 50 mM NaCl, 0.1% BSA, 0.01% Tween-20, 10 μM GDP) and 2 μL was added to the appropriate wells of the 384-well plate. The plate was incubated for 30 minutes at rt. Biotinylated KRPep-2d substrate (Amgen) was diluted to […] in Assay Buffer and 2 AL was added to all wells and incubated for 1 hour at room temperature. Detection Reagent (0.4 nM LANCE Eu-W1024 Anti-6×His (Perkin Elmer AD0401), 5 nM streptavidin-d2 (Cisbio 610SADLA)) was prepared in Assay Buffer, then 4 AL was added to the plate and incubated for 1 h at rt. Plates were read using PerkinElmer En Vision (ex: 320 nm, em1: 665 nm, em2: 615 nm) and em1/em2 data was used to generate curve fits using a 4-parameter logistic model to calculate IC50 values.

[3] = target: GDP-bound KRAS protein (aa 1-169), G12D and C118A; SOS-mediated nucleotide exchange (Homo sapiens (Human), UniProt P01116, C118A/G12D); assay: KRAS G12D Coupled Nucleotide Exchange Assay; assay type: biochemical; conditions: 2 h compound pre-incubation, GTP, cRAF AlphaScreen
Sequence of GDP-bound KRAS protein (aa 1-169), G12D and C118A; SOS-mediated nucleotide exchange (P01116 other isoform, or with tags, fused parts or gaps G12D/C118A): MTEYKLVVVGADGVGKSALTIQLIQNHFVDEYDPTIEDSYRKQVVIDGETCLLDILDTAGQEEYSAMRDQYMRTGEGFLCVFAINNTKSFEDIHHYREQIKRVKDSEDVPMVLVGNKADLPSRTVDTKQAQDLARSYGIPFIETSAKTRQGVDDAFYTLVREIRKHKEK
Protocol: Purified GDP-bound KRAS protein (aa 1-169), containing both G12D and C118A amino acid substitutions and an N-terminal His-tag, was pre-incubated in assay buffer (25 mM HEPES pH 7.4, 10 mM MgCl2, and 0.01% Triton X-100) with a compound dose-response titration for 2 h. Following compound pre-incubation, purified SOS protein (aa 564-1049) and GTP (Roche 10106399001) were added to the assay wells and incubated for an additional 30 min. […] The assay plates were then read on a PerkinElmer En Vision Multilabel Reader, using AlphaScreen® technology, and data were analyzed using a 4-parameter logistic model to calculate IC50 values.

| IC50 [1] [µM] | IC50 [2] [nM] | IC50 [3] [nM] | Compound |
| --- | --- | --- | --- |
| 0.264 | – | – | N#Cc1c(N)sc2c(F)ccc(-c3c(Cl)cc4c(N5CC6CC(O)C(C6)C5)nc(OC[C@@]56CCCN5C[C@H](F)C6)nc4c3F)c12 (mixture of isomers) [Example 7, 2-Amino-4-(6-chloro-8-fluoro-2-(((2R,7aS)-2-fluorotetrahydro-1H-pyrrolizin-7a(5H)-yl)methoxy)-4-(rac-(1R,5R,6R)-6-hydroxy-3-azabicyclo[3.2.1]octan-3-yl)quinazolin-7-yl)-7-fluorobenzo[6] thiophene-3-carbonitrile] |
| 0.013 | 2 | 2 | N#Cc1c(N)sc2c(F)ccc(-c3c(Cl)cc4c(N5CCCOCCC5)nc(OC[C@@]56CCCN5C[C@H](F)C6)nc4c3F)c12 (single isomer, unassigned) [Example 18] |
| – | 164 | 94 | N#Cc1c(N)sc2c(F)ccc(-c3c(Cl)cc4c(N5CCCOCCC5)nc(OC[C@@]56CCCN5C[C@H](F)C6)nc4c3F)c12 (single isomer, unassigned) [Example 19] |
| – | 44 | 42 | CC1(O)COCCN(c2nc(OC[C@@]34CCCN3C[C@H](F)C4)nc3c(F)c(-c4ccc(F)c5sc(N)c(C#N)c45)c(Cl)cc23)C1 (single isomer, unassigned) [Example 23] |
| – | 61 | 34 | CC(C)(O)COc1nc(N2CCOC[C@@](C)(O)C2)c2cc(Cl)c(-c3ccc(F)c4sc(N)c(C#N)c34)c(F)c2n1 (single isomer, unassigned) [Example 67] |
| 0.052 | – | – | N#Cc1c(N)sc2c(F)ccc(-c3c(Cl)cc4c(N5CCCCCC5)nc(OC[C@@]56CCCN5C[C@H](F)C6)nc4c3F)c12 [Example 1, 2-Amino-4-(4-(azepan-1-yl)-6-chloro-8-fluoro-2-(((2R,7aS)-2-fluorotetrahydro-1H-pyrrolizin-7a(5H)-yl)methoxy)quinazolin-7-yl)-7-fluorobenzo[b]thiophene-3-carbonitrile] |
| – | 34 | 46 | N#Cc1c(N)sc2c(F)ccc(-c3c(Cl)cc4c(N5CCCC6(CCOC6)C5)nc(OC[C@@]56CCCN5C[C@H](F)C6)nc4c3F)c12 (stereo partly drawn) [Example 2, 2-Amino-4-(6-chloro-8-fluoro-2-(((2R,7aS)-2-fluorotetrahydro-1H-pyrolizin-7a(5H)-yl)methoxy)-4-(2-oxa-7-azaspiro[4.5]decan-7-yl)quinazolin-7-yl)-7-fluorobenzo[b] thiophene-3-carbonitrile] |
| 0.105 | – | – | N#Cc1c(N)sc2c(F)ccc(-c3c(Cl)cc4c(N5CCCC(C#N)CC5)nc(OC[C@@]56CCCN5C[C@H](F)C6)nc4c3F)c12 (stereo partly drawn) [Example 3, 1-(7-(2-Amino-3-cyano-7-fluorobenzo[b]thiophen-4-yl)-6-chloro-8-fluoro-2-(((2R,7a.S)-2-fluorotetrahydro-1H-pyrrolizin-7a(5H)-yl)methoxy)quina-zolin-4-yl)azepane-4-carbonitrile] |
| 0.041 | – | – | N#Cc1c(N)sc2c(F)ccc(-c3c(Cl)cc4c(N5CCCC[C@@H](O)C5)nc(OC[C@@]56CCCN5C[C@H](F)C6)nc4c3F)c12 [Example 4, 2-Amino-4-(6-chloro-8-fluoro-2-(((2R,7aS)-2-fluorotetrahydro-1H-pyrrolizin-7a(5H)-yl)methoxy)-4-((R)-3-hydroxyazepan-1-yl)quinazolin-7-yl)-7-fluorobenzo[b] thiophene-3-carbonitrile] |
| 0.143 | – | – | N#Cc1c(N)sc2c(F)ccc(-c3c(Cl)cc4c(N5CCOCC(=O)C5)nc(OC[C@@]56CCCN5C[C@H](F)C6)nc4c3F)c12 [Example 6, 2-Amino-4-(6-chloro-8-fluoro-2-(((2R,7aS)-2-fluorotetrahydro-1H-pyrrolizin-7a(5H)-yl)methoxy)-4-(6-oxo-1,4-oxazepan-4-yl)quinazolin-7-yl)-7-fluorobenzo[b] thiophene-3-carbonitrile] |
| 0.015 | – | – | N#Cc1c(N)sc2c(F)ccc(-c3c(Cl)cc4c(N5CCCCC(=O)C5)nc(OC[C@@]56CCCN5C[C@H](F)C6)nc4c3F)c12 [Example 8, 2-Amino-4-(6-chloro-8-fluoro-2-(((2R,7aS)-2-fluorotetrahydro-1H-pyrrolizin-7a(5H)-yl)methoxy)-4-(3-oxoazepan-1-yl)quinazolin-7-yl)-7-fluorobenzo[b] thiophene-3-carbonitrile] |
| – | 60 | 41 | N#Cc1c(N)sc2c(F)ccc(-c3c(Cl)cc4c(N5CCC6(CCCS6(=O)=O)C5)nc(OC[C@@]56CCCN5C[C@H](F)C6)nc4c3F)c12 (stereo partly drawn) [Example 9, 2-Amino-4-(6-chloro-4-(1,1-dioxido-1-thia-7-azaspiro[4.4]nonan-7-yl)-8-fluoro-2-(((2R,7aS)-2-fluorotetrahydro-1H-pyrrolizin-7a(5H)-yl)methoxy)quinazolin-7-yl)-7-fluorobenzo[b] thiophene-3-carbonitrile] |
| – | 44 | 36 | N#Cc1c(N)sc2c(F)ccc(-c3c(Cl)cc4c(N5CCCC6(CCS6(=O)=O)C5)nc(OC[C@@]56CCCN5C[C@H](F)C6)nc4c3F)c12 (stereo partly drawn) [Example 10, 2-Amino-4-(6-chloro-4-(1,1-dioxido-1-thia-6-azaspiro[3.5]nonan-6-yl)-8-fluoro-2-(((2R,7aS)-2-fluorotetrahydro-1H-pyrrolizin-7a(5H)-yl)methoxy)quinazolin-7-yl)-7-fluorobenzo[b] thiophone-3-carbonitrile] |
| 0.768 | – | – | N#Cc1c(N)sc2c(F)ccc(-c3c(Cl)cc4c(N5CCCC6(CNC(=O)O6)C5)nc(OC[C@@]56CCCN5C[C@H](F)C6)nc4c3F)c12 (stereo partly drawn) [Example 17, 2-Amino-4-(6-chloro-8-fluoro-2-(((2R,7aS)-2-fluorotetrahydro-1H-pyrrolizin-7a(5H)-yl)methoxy)-4-(2-oxo-1-oxa-3,7-diazaspiro[4.5]decan-7-yl)quinazolin-7-yl)-7-fluorobenzo[b] thiophene-3-carbonitrile] |
| 0.081 | – | – | N#Cc1c(N)sc2c(F)ccc(-c3c(Cl)cc4c(N5CCC=CC(O)C5)nc(OC[C@@]56CCCN5C[C@H](F)C6)nc4c3F)c12 (stereo partly drawn) [Example 29, 2-Amino-4-(6-chloro-8-fluoro-2-(((2R,7aS)-2-fluorotetrahydro-1H-pyrrolizin-7a(5H)-yl)methoxy)-4-(3-hydroxy-2,3,6,7-tetrahydro-1H-azepin-1-yl)quinazolin-7-yl)-7-fluorobenzo[b] thiophene-3-carbonitrile] |
| – | 17 | 30 | C[C@@]1(O)CCCN(c2nc(OC[C@@]34CCCN3C[C@H](F)C4)nc3c(F)c(-c4ccc(F)c5sc(N)c(C#N)c45)ncc23)C1 [Example 56, 2-Amino-7-fluoro-4-(8-fluoro-2-(((2R,7aS)-2-fluorotetrahydro-1H-pyrrolizin-7a(5H)-yl)methoxy)-4-((R)-3-hydroxy-3-methylpiperidin-1-yl)pyrido[4,3-d]pyrimidin-7-yl)benzo[b] thiophene-3-carbonitrile] |
| – | 144 | 91 | N#Cc1c(N)sc2c(F)ccc(-c3c(Cl)cc4c(N5CCCC[C@@H](C#N)C5)nc(OC[C@@]56CCCN5C[C@H](F)C6)nc4c3F)c12 [Example 68, (3R)-1-(7-(2-amino-3-cyano-7-fluorobenzo[b]thiophen-4-yl)-6-chloro-8-fluoro-2-(((2R,7aS)-2-fluorotetrahydro-1H-pyrrolizin-7a(5H)-yl)methoxy)quinazolin-4-yl)azepane-3-carbonitrile] |
| – | 139 | 71 | N#Cc1c(N)sc2c(F)ccc(-c3c(Cl)cc4c(N5CCCC[C@H](C#N)C5)nc(OC[C@@]56CCCN5C[C@H](F)C6)nc4c3F)c12 [Example 69, (3S)-1-(7-(2-amino-3-cyano-7-fluorobenzo[b]thiophen-4-yl)-6-chloro-8-fluoro-2-(((2R,7aS)-2-fluorotetrahydro-1H-pyrrolizin-7a(5H)-yl)methoxy)quinazolin-4-yl)azepane-3-carbonitrile] |
